Experimental data taken from PubChem BioAssay (NCI).
Converted amounts (≈) assume the structure as drawn. “And” between values parts separate entries of the source, which are not always exact repeats. Equal entries are not always repeated.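 Values below derive from 48-hour exposures of cells grown in 96-well plates, with endpoints linearly interpolated between the two concentrations bracketing the appropriate inhibition level. GI50 = concentration required for 50% inhibition of growth. TGI: concentration producing complete growth inhibition.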 The source made the active and inactive calls. Rule as the data show it: active = GI50 below about 0.43 µM; inactive = the rest.

Assays:
Assay in all cases: growth of human tumour cells (NCI), 48 h
LXFL 529 NSCLC = test system: LXFL 529 NSCLC
DLD-1 colon = test system: DLD-1 colon
DMS 273 small cell lung = test system: DMS 273 small cell lung
HOP-18 NSCLC = test system: HOP-18 NSCLC
XF 498 CNS = test system: XF 498 CNS
SNB-78 CNS = test system: SNB-78 CNS
M19-MEL melanoma = test system: M19-MEL melanoma
DMS 114 small cell lung = test system: DMS 114 small cell lung

SMILES	TGI (LXFL 529 NSCLC) [µM]	TGI (DLD-1 colon)	TGI (DMS 273 small cell lung)	TGI (HOP-18 NSCLC) [µM]	TGI (XF 498 CNS) [µM]	TGI (SNB-78 CNS)	TGI (M19-MEL melanoma)	outcome (LXFL 529 NSCLC)	GI50 (DLD-1 colon)	GI50 (DMS 273 small cell lung) [µg/mL]	outcome (HOP-18 NSCLC)	TGI (DMS 114 small cell lung) [µM]	outcome (XF 498 CNS)	GI50 (SNB-78 CNS)	GI50 (M19-MEL melanoma)	GI50 (LXFL 529 NSCLC) [µM]	GI50 (HOP-18 NSCLC) [µM]	GI50 (DMS 114 small cell lung) [µM]	GI50 (XF 498 CNS) [µM]
COC1OC(OC)C2C(c3c(C)cc(C)cc3C)=NOC12 (stereo not given)	> 100	> 100 µM	> 100 µM	> 100	> 100	> 100 µM	> 100 µM	–	–	–	–	–	–	–	–	–	–	–	–
O=C(Nc1ccc(Cl)cc1)NS(=O)(=O)c1ccc2c(c1)CCC2	> 100	> 100 µM and 41.1 µg/mL	> 100 µM and 39.6 µg/mL	> 100	> 100	> 100 µM and 51 µg/mL	> 100 µM and 58.5 µg/mL	inactive	19.5 µg/mL	17.6 (≈ 50.3 µM)	inactive	> 100	inactive	8.37 µg/mL	29.8 µg/mL	–	–	–	–
COc1ccc(C(=O)O/N=C2\CCCC\C2=C/c2ccccc2)cc1	> 100	> 100 µM	> 100 µM	> 100	89.2	> 100 µM	> 100 µM	–	–	–	–	> 100	–	–	–	–	–	–	–
COc1ccc(NC(=O)CC/C(CC(=O)c2ccco2)=N/Nc2ccc([N+](=O)[O-])cc2[N+](=O)[O-])cc1	> 100	–	> 100 µM	> 100	81.4	> 100 µM	> 100 µM	–	–	–	–	69.6	–	–	–	–	–	–	–
COC(=O)C1=Cc2cc3c(cc2[C@H](c2ccc4c(c2)OCO4)C1C(=O)OC)OCO3 (stereo not given in full)	> 100	> 100 µM	> 100 µM	> 100	> 100	> 100 µM	> 100 µM	–	–	–	–	> 100	–	–	–	–	–	–	–
CCCCN(CCCC)C(=Nc1ccccc1)N(CCCC)CCCC	18.5	43.6 µM	17.1 µM	6.39	5.95	41 µM	22.4 µM	–	–	–	–	4.99	–	–	–	–	–	–	–
O=C(Nc1nc2ncn(CCOC(=O)c3ccccc3)c2c(=O)[nH]1)c1ccccc1	> 100	–	–	> 100	55.7	> 100 µM	–	–	–	–	–	–	–	–	–	–	–	–	–
CC(C)NC(=O)OCc1nnn2c1C(OC(=O)NC(C)C)CC2 (stereo not given)	> 100	> 100 µM	> 100 µM	> 100	> 100	> 100 µM	> 100 µM	–	–	–	–	> 100	–	–	–	–	–	–	–
CCOC(=O)C(C(=O)c1ccccc1-c1ccccc1C(=O)O)=P(c1ccccc1)(c1ccccc1)c1ccccc1	> 100	–	> 100 µM	–	50.2	–	72.8 µM	–	–	–	–	54.4	–	–	–	–	–	–	–
COc1c(O)c2ccccc2c2cc(O)ccc12	9.9	25.5 µM	20.5 µM	3.72	5.13	46.6 µM	3.59 µM	–	–	–	–	6.03	–	–	–	–	–	–	–
COC(=O)C1=CC(=O)C(C(=O)Nc2ccc(OC)cc2)C(c2ccccc2)O1 (stereo not given)	62.4	> 100 µM	> 71 µM	–	–	> 81.9 µM	–	–	–	–	–	> 67.5	–	–	–	–	–	–	–
CCN(CC)CCN(C)CC(C)(C)C(=O)/C=C/c1ccccc1	24.7	22.2 µM	26.1 µM	30.6	24.8	–	24.3 µM	–	–	–	–	21.4	–	–	–	–	–	–	–
CCCCNC(=S)Nn1c(-c2ccccc2)nc2ccccc2c1=O	> 100	> 100 µM	> 100 µM	> 100	–	–	> 100 µM	–	–	–	–	> 100	–	–	–	–	–	–	–
CC(C)c1ccc2c(c1)CCC1C(C)(C)[C@@H](O)CC[C@]21C (stereo not given in full)	> 100	> 100 µM	> 100 µM	–	–	> 100 µM	44.2 µM	–	–	–	–	> 100	–	–	–	–	–	–	–
CN(C)C1(C#N)CCC2(CC1)OCCO2	–	–	> 100 µM	–	–	> 100 µM	> 100 µM	–	–	–	–	–	–	–	–	–	–	–	–
c1ccc([CH2][Sn]([CH2]c2ccccc2)([S]c2cccc3cccnc23)[S]c2cccc3cccnc23)cc1	0.244	0.886 µM	–	0.84	0.367	1.5 µM	0.739 µM	–	0.282 µM	–	–	0.378	–	0.382 µM	0.276 µM	0.101	0.246	0.175	0.109
CC(=O)OCC1OC(n2cc(F)c(=O)[nH]c2=O)C(OC(C)=O)C1OC(C)=O (stereo not given)	> 100	> 100 µM	–	> 100	> 100	> 100 µM	> 100 µM	–	–	–	–	> 100	–	–	–	–	–	–	–

SMILES	TGI (LXFL 529 NSCLC) [µM]	TGI (DLD-1 colon)	TGI (DMS 273 small cell lung)	TGI (HOP-18 NSCLC) [µM]	TGI (XF 498 CNS) [µM]	TGI (SNB-78 CNS)	TGI (M19-MEL melanoma)	outcome (LXFL 529 NSCLC)	GI50 (DLD-1 colon)	GI50 (DMS 273 small cell lung) [µg/mL]	outcome (HOP-18 NSCLC)	TGI (DMS 114 small cell lung) [µM]	outcome (XF 498 CNS)	GI50 (SNB-78 CNS)	GI50 (M19-MEL melanoma)	GI50 (LXFL 529 NSCLC) [µM]	GI50 (HOP-18 NSCLC) [µM]	GI50 (DMS 114 small cell lung) [µM]	GI50 (XF 498 CNS) [µM]
COC(=O)C(=O)C(C#N)c1cccc2ccccc12 (stereo not given)	> 100	> 100 µM	> 100 µM	> 100	> 100	> 100 µM	> 100 µM	–	–	–	–	> 100	–	–	–	–	–	–	–
CCc1ccc(Cc2ccc(CC)c(NC(=O)C(=O)Cc3nc4ccccc4nc3C)c2CC)c(CC)c1NC(=O)C(=O)Cc1nc2ccccc2nc1C	> 100	> 100 µM	–	–	–	> 100 µM	> 100 µM	–	–	–	–	> 100	–	–	–	–	–	–	–
N#Cc1c([N+](=O)[O-])cc(C(F)(F)F)cc1[N+](=O)[O-]	4.42	16.7 µM	16.8 µM	23.9	3.54	4.15 µM	5.27 µM	–	–	–	–	3.93	–	–	–	–	–	–	–
O=c1[nH]nc(-c2ccccc2)c(-c2ccccc2)c1-n1nc(-c2ccccc2)c2ccccc2c1=O	> 100	> 100 µM	> 100 µM	> 100	–	> 100 µM	> 100 µM	–	–	–	–	–	–	–	–	–	–	–	–
O=C(c1ccccc1)c1nnn(Cc2cccc(Cl)c2)c1C(=O)c1ccccc1	> 100	> 100 µM	> 100 µM	> 100	> 100	> 100 µM	> 100 µM	–	–	–	–	> 100	–	–	–	–	–	–	–
Cc1ccc(S(=O)(=O)NCCCN(CCCNS(=O)(=O)c2ccc(C)cc2)S(=O)(=O)c2ccc(C)cc2)cc1	> 100	> 100 µM	> 100 µM	–	–	> 100 µM	> 100 µM	–	–	–	–	> 100	–	–	–	–	–	–	–
C=CCCc1cc(OC)ccc1CN(C)C(C)(C)CO	–	> 100 µM	> 100 µM	> 100	–	> 100 µM	> 100 µM	–	–	–	–	> 100	–	–	–	–	–	–	–
CC(=O)NNc1nc(C)c(C(/C=C/c2ccc(/C=C/C(=N\NC(=O)c3ccncc3)c3sc(NNC(C)=O)nc3C)cc2)=N/NC(=O)c2ccncc2)s1	> 100	> 100 µM	–	–	–	> 100 µM	> 100 µM	–	–	–	–	> 100	–	–	–	–	–	–	–
[N-]=[N+]=Nc1ccc(S(=O)(=O)Oc2cc(OS(=O)(=O)c3ccc(N=[N+]=[N-])cc3)cc(OS(=O)(=O)c3ccc(N=[N+]=[N-])cc3)c2)cc1	> 100	> 100 µM	> 100 µM	> 100	> 100	> 100 µM	> 100 µM	–	–	–	–	> 100	–	–	–	–	–	–	–
COC(=O)C1=C(O)C(O)=C(C(=O)OC)CC1	> 100	> 100 µM	> 100 µM	> 100	> 100	> 100 µM	> 100 µM	–	–	–	–	> 100	–	–	–	–	–	–	–
COc1ccc(CN(O)C2C(CO)OC(n3cc(I)c(=O)[nH]c3=O)C2O)cc1 (stereo not given)	> 100	> 100 µM	> 100 µM	> 100	> 100	> 100 µM	> 100 µM	–	–	–	–	> 100	–	–	–	–	–	–	–
Cc1cc(O)c2c(c1)C[C@@H](O)C1=C2C(=O)c2c(O)ccc(OC3CC(O)C(OC4CC(OC5CCC(OC6CC(O)C(OC7CC(OC8CCC(O)C(C)O8)C(O)C(C)O7)C(C)O6)C(C)O5)C(O)C(C)O4)C(C)O3)c2C1=O (stereo not given in full)	0.0293	0.0426 µM	0.0684 µM	0.188	0.0517	0.064 µM	0.0197 µM	–	–	–	–	0.0378	–	–	–	–	–	–	–
C=C1C(=O)OC2C1C(OC(=O)/C(=C/C)COC(C)=O)CC1(CO1)C1C(OC(=O)/C(=C/C)CO)C=C(C)C21 (stereo not given)	1.66	4.14 µM	3.68 µM	2.74	3.78	6.41 µM	4.3 µM	–	–	–	–	4.46	–	–	–	–	–	–	–
CCS[C@H]1NC(=O)C1[C@H](C)O[Si](C)(C)C(C)(C)C (stereo not given in full)	–	> 100 µM	> 100 µM	> 100	> 100	> 100 µM	> 100 µM	–	–	–	–	> 100	–	–	–	–	–	–	–
O=C(CC(O)(c1ccccc1)c1ccc(Cl)cc1)NC(=O)c1ccccc1O (stereo not given)	56.3	> 100 µM	39 µM	8.97	–	> 100 µM	82.8 µM	–	–	–	–	31.5	–	–	–	–	–	–	–
Cc1c(C(=O)/C=C/c2ccco2)[n+](=O)c2ccccc2n1[O-]	> 100	> 100 µM	> 100 µM	> 100	> 100	> 100 µM	> 100 µM	–	–	–	–	> 100	–	–	–	–	–	–	–
